The assay concerns Swiss mice, Sarcoma 180 sc, mean tumor weight T/C. The assay can be described thus: NCI In Vivo Anticancer Drug Screen. Data for tumor model Sarcoma 180 (subcutaneous) in Swiss mice. The note with it: endpoint: mean tumor weight, higher = larger tumour. In short, it runs like this: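 Readout is the ratio of treated-group measurement to vehicle-control measurement (T/C), based on survival or tumor size in mice carrying transplanted tumors.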

Where [1] appears, read: dose: 55.0 mg/kg/injection, schedule: Q01DX007 (ip), vehicle: carboxymethylcellulose (CMC).
Setting [2] is: dose: 10.0 mg/kg/injection, schedule: Q01DX007 (ip), vehicle: water.

SMILES strings stand for the structures. “And” between values parts separate entries of the source, which are not always exact repeats. Equal values may be shown once.

These results are taken from PubChem BioAssay AID342 (DTP/NCI, 2004).

By T/C is commonly meant the result in the treated group divided by that in the control group, in per cent.

Turning to `CC(=O)[C@@]1(O)[C@H](C)C[C@H]2[C@@H]3C=C(C)C4=Cc5c(cnn5-c5ccccc5)C[C@]4(C)[C@H]3[C@@H](O)C[C@@]21C`, the T/C runs as follows: (dose: 0.11 mg/kg/injection, schedule: Q01DX007 (sc), vehicle: steriod suspending solution) 95 % of control; (dose: 0.17 mg/kg/injection, schedule: Q01DX007 (sc), vehicle: steriod suspending solution) 84 % of control; (dose: 0.75 mg/kg/injection, schedule: Q01DX007 (sc), vehicle: steriod suspending solution) 22 % of control and 42 % of control; (dose: 1.0 mg/kg/injection, schedule: Q01DX007 (sc), vehicle: steriod suspending solution) 21 % of control; (dose: 2.0 mg/kg/injection, schedule: Q01DX007 (sc), vehicle: steriod suspending solution) 23 % of control; (dose: 4.0 mg/kg/injection, schedule: Q01DX007 (sc), vehicle: steriod suspending solution) 9 % of control.

As for `NC(=O)Nc1n[se]nc1C(=O)O`, the T/C is, setting by setting: (dose: 20.0 mg/kg/injection, schedule: Q01DX007 (ip), vehicle: saline) 111 % of control; (dose: 30.0 mg/kg/injection, schedule: Q01DX007 (ip), vehicle: saline) 75 % of control.

Turning to `O=C(c1ccccc1)C(C(=O)c1ccccc1)C(=O)c1ccccc1.O=C(c1ccccc1)C(C(=O)c1ccccc1)C(=O)c1ccccc1.[Cu]`, the T/C by setting is: under setting [1], 68 % of control and 70 % of control; (dose: 85.0 mg/kg/injection, schedule: Q01DX007 (ip), vehicle: carboxymethylcellulose (CMC)) 63 % of control and 84 % of control; (dose: 190.0 mg/kg/injection, schedule: Q01DX007 (ip), vehicle: carboxymethylcellulose (CMC)) 60 % of control and 64 % of control; (dose: 284.0 mg/kg/injection, schedule: Q01DX007 (ip), vehicle: carboxymethylcellulose (CMC)) 66 % of control.

Regarding `O=C1c2ccccc2C(=O)c2c1c(O)c1ccccc1c2O`, the T/C runs as follows: (dose: 100.0 mg/kg/injection, schedule: Q#A X014 (im), vehicle: other) 87 % of control; (dose: 100.0 mg/kg/injection, schedule: Q#A X014 (sc), vehicle: other) 70 % of control; (dose: 200.0 mg/kg/injection, schedule: Q#A X014 (im), vehicle: other) 109 % of control; (dose: 200.0 mg/kg/injection, schedule: Q#A X014 (sc), vehicle: other) 66 % of control; (dose: 300.0 mg/kg/injection, schedule: Q#A X014 (im), vehicle: other) 114 % of control; (dose: 300.0 mg/kg/injection, schedule: Q#A X014 (sc), vehicle: other) 64 % of control. Further, the T/C is 90 % of control (dose: 400.0 mg/kg/injection, schedule: Q#A X014 (im), vehicle: other); 65 % of control (dose: 400.0 mg/kg/injection, schedule: Q#A X014 (sc), vehicle: other); 72 % of control (dose: 500.0 mg/kg/injection, schedule: Q#A X014 (oral), vehicle: other); 69 % of control (dose: 750.0 mg/kg/injection, schedule: Q#A X014 (oral), vehicle: other).

As to `C[C@]12C=CC(=O)C=C1CC[C@@H]1[C@@H]2CC[C@]2(C)OC(=O)CC[C@@H]12`, the T/C is 74 % of control and 99 % of control (dose: 250.0 mg/kg/injection, schedule: Q01DX007 (sc), vehicle: steriod suspending solution); 83 % of control and 105 % of control (dose: 500.0 mg/kg/injection, schedule: Q01DX007 (sc), vehicle: steriod suspending solution).

For the compound `CC(=O)Nc1cc2c(cc1Cl)C(=O)c1cc(Cl)ccc1-2`, the T/C under setting [1] is 75 % of control; the T/C (dose: 83.0 mg/kg/injection, schedule: Q01DX007 (ip), vehicle: carboxymethylcellulose (CMC)) is 53 % of control; the T/C (dose: 125.0 mg/kg/injection, schedule: Q01DX007 (ip), vehicle: carboxymethylcellulose (CMC)) was 39 % of control; the T/C (dose: 187.5 mg/kg/injection, schedule: Q01DX007 (ip), vehicle: carboxymethylcellulose (CMC)) is 26 % of control.

`NC(=O)NO`: the T/C is, setting by setting: (dose: 16.0 mg/kg/injection, schedule: Q01DX007 (ip), vehicle: carboxymethylcellulose (CMC)) 89 % of control; (dose: 32.0 mg/kg/injection, schedule: Q01DX007 (ip), vehicle: carboxymethylcellulose (CMC)) 111 % of control; (dose: 64.0 mg/kg/injection, schedule: Q01DX007 (ip), vehicle: carboxymethylcellulose (CMC)) 112 % of control; (dose: 128.0 mg/kg/injection, schedule: Q01DX007 (ip), vehicle: carboxymethylcellulose (CMC)) 69 % of control.

As for `C[C@H]1/C(=C/C(=O)OCCN(C)C)CC[C@H]2[C@H]1C(=O)C[C@H]1C(C)(C)[C@@H](O)CC[C@]21C`, the T/C runs as follows: (dose: 1.88 mg/kg/injection, schedule: Q01DX007 (ip), vehicle: saline) 60 % of control; (dose: 3.75 mg/kg/injection, schedule: Q01DX007 (ip), vehicle: saline) 64 % of control; (dose: 7.5 mg/kg/injection, schedule: Q01DX007 (ip), vehicle: saline) 75 % of control.

Regarding `CC(C)COC(=O)C1(N)CCCC1`, the T/C is 80 % of control (dose: 90.0 mg/kg/injection, schedule: Q01DX007 (ip), vehicle: carboxymethylcellulose (CMC)); 44 % of control (dose: 135.0 mg/kg/injection, schedule: Q01DX007 (ip), vehicle: carboxymethylcellulose (CMC)); 14 % of control (dose: 188.0 mg/kg/injection, schedule: Q01DX007 (ip), vehicle: saline); 49 % of control (dose: 202.0 mg/kg/injection, schedule: Q01DX007 (ip), vehicle: carboxymethylcellulose (CMC)); 18 % of control (dose: 303.0 mg/kg/injection, schedule: Q01DX007 (ip), vehicle: carboxymethylcellulose (CMC)).

In the case of `C/C=C1/CN(C)C2Cc3c([nH]c4ccccc34)C(c3cc4[nH]c5c(c4cc3OC)CCN3CC4CC(C(C)O)C3C5(C(=O)OC)C4)CC1C2C(=O)OC` (configuration not stated), the T/C runs as follows: under setting [2], 54 % of control; (dose: 20.0 mg/kg/injection, schedule: Q01DX007 (ip), vehicle: water) 97 % of control; (dose: 30.0 mg/kg/injection, schedule: Q01DX007 (ip), vehicle: water) 87 % of control; (dose: 40.0 mg/kg/injection, schedule: Q01DX007 (ip), vehicle: water) 80 % of control.

As to `c1ccc2nc3ccccc3c-2cc1`, the T/C is 118 % of control (dose: 62.5 mg/kg/injection, schedule: Q01DX007 (ip), vehicle: saline); 106 % of control (dose: 125.0 mg/kg/injection, schedule: Q01DX007 (ip), vehicle: saline); 113 % of control (dose: 250.0 mg/kg/injection, schedule: Q01DX007 (ip), vehicle: saline); 85 % of control (dose: 750.0 mg/kg/injection, schedule: Q01DX007 (ip), vehicle: saline); 68 % of control (dose: 1000.0 mg/kg/injection, schedule: Q01DX007 (ip), vehicle: saline).

As to `COC1C(O)CC(=O)OC(C)C/C=C/C=C/C(OC2CCC(N(C)C)C(C)O2)C(C)CC(CC=O)C1OC1OC(C)C(OC2CC(C)(O)C(O)C(C)O2)C(N(C)C)C1O` (configuration not stated), the T/C runs as follows: (dose: 44.0 mg/kg/injection, schedule: Q01DX007 (ip), vehicle: water) 124 % of control; (dose: 66.0 mg/kg/injection, schedule: Q01DX007 (ip), vehicle: water) 85 % of control; (dose: 100.0 mg/kg/injection, schedule: Q01DX007 (ip), vehicle: water) 123 % of control; (dose: 150.0 mg/kg/injection, schedule: Q01DX007 (ip), vehicle: water) 95 % of control; (dose: 225.0 mg/kg/injection, schedule: Q01DX007 (ip), vehicle: water) 110 % of control; (dose: 337.0 mg/kg/injection, schedule: Q01DX007 (ip), vehicle: water) 72 % of control.

For `COc1cc2c3c(c4cc(OC)c(OC)cc4c2cc1OC)CN1CCC[C@H]1C3`, the T/C under setting [2] is 70 % of control; the T/C (dose: 12.0 mg/kg/injection, schedule: Q01DX007 (ip), vehicle: water) was 81 % of control; the T/C (dose: 18.0 mg/kg/injection, schedule: Q01DX007 (ip), vehicle: water) was 42 % of control.

On to `Cc1cc(N(CCCl)CCCl)ccc1N=Nc1ccccc1C(=O)O`, for which the T/C by setting is: (dose: 5.3 mg/kg/injection, schedule: Q01DX007 (ip), vehicle: carboxymethylcellulose (CMC)) 33 % of control; (dose: 8.0 mg/kg/injection, schedule: Q01DX007 (ip), vehicle: carboxymethylcellulose (CMC)) 50 % of control; (dose: 12.0 mg/kg/injection, schedule: Q01DX007 (ip), vehicle: carboxymethylcellulose (CMC)) 61 % of control; (dose: 18.0 mg/kg/injection, schedule: Q01DX007 (ip), vehicle: carboxymethylcellulose (CMC)) 27 % of control.
